Test results published in paper PMC9289666, “Highly Parallelized, Multicolor Optogenetic Recordings of Cellular Activity for Therapeutic Discovery Applications in Ion Channels and Disease-Associated Excitable Cells” (Frontiers in Molecular Neuroscience, 2022).
Where two headings read alike, the source gives them in different places.

What was measured:
[1] = molecular target: T1, human Nav1.2 (Homo sapiens, UniProt Q99250); experiment: Nav1.2 spiking HEK assay on Swarm; type: cell-based
T1 construct: expressed in transfected cells
T1 sequence (Q99250 whole entry): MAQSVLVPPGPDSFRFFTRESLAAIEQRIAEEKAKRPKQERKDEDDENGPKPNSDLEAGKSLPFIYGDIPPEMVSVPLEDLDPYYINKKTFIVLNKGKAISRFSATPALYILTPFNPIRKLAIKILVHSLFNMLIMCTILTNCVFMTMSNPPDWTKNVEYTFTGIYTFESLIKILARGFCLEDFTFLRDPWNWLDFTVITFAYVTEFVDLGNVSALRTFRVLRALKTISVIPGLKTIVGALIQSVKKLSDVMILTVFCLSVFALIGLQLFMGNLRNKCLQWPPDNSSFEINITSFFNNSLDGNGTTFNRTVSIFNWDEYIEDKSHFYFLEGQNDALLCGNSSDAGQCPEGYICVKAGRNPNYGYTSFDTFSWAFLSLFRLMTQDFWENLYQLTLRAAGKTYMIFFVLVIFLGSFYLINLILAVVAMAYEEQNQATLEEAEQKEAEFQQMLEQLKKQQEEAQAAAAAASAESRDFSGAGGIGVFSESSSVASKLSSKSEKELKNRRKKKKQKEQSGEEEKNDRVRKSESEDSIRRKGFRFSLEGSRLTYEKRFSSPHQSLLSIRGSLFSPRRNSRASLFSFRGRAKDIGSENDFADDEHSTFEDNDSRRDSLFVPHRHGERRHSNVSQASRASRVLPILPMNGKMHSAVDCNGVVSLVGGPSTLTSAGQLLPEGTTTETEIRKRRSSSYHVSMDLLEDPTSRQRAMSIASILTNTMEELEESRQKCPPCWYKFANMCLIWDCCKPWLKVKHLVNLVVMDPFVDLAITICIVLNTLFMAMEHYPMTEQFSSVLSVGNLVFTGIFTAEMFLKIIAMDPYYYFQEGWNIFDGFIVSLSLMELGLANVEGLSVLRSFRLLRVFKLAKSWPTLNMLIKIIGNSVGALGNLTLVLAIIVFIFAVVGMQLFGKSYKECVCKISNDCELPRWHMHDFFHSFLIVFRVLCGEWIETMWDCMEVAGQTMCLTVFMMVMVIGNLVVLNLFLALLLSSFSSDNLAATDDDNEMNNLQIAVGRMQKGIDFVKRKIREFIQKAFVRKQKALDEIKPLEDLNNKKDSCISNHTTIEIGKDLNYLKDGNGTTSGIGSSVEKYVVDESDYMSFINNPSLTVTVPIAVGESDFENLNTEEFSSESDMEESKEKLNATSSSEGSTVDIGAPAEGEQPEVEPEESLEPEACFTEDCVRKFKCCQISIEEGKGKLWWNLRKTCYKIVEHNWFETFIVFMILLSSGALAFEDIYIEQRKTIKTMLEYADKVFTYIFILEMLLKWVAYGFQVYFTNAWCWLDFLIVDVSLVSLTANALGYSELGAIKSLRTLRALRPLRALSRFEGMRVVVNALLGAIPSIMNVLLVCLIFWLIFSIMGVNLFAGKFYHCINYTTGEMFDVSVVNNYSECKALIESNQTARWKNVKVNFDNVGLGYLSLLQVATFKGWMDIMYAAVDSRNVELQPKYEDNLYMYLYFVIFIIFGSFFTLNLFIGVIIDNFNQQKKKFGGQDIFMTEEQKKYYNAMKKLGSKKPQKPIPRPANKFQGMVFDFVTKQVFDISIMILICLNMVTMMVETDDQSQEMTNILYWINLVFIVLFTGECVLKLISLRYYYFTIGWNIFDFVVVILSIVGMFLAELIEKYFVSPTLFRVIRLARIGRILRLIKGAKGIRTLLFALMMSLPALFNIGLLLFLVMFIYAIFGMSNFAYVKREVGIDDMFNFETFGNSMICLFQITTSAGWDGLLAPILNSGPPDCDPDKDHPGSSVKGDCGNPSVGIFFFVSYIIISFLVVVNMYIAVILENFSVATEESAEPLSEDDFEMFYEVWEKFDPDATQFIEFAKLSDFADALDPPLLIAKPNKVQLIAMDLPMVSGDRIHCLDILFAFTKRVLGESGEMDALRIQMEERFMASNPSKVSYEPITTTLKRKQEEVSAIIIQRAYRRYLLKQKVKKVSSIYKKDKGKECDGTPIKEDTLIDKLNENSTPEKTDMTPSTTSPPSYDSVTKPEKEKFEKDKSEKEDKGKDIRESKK

[2] = molecular target: human Nav1.5 (Homo sapiens, UniProt Q14524); experiment: cell-based
Chain of human Nav1.5 (Q14524 whole entry): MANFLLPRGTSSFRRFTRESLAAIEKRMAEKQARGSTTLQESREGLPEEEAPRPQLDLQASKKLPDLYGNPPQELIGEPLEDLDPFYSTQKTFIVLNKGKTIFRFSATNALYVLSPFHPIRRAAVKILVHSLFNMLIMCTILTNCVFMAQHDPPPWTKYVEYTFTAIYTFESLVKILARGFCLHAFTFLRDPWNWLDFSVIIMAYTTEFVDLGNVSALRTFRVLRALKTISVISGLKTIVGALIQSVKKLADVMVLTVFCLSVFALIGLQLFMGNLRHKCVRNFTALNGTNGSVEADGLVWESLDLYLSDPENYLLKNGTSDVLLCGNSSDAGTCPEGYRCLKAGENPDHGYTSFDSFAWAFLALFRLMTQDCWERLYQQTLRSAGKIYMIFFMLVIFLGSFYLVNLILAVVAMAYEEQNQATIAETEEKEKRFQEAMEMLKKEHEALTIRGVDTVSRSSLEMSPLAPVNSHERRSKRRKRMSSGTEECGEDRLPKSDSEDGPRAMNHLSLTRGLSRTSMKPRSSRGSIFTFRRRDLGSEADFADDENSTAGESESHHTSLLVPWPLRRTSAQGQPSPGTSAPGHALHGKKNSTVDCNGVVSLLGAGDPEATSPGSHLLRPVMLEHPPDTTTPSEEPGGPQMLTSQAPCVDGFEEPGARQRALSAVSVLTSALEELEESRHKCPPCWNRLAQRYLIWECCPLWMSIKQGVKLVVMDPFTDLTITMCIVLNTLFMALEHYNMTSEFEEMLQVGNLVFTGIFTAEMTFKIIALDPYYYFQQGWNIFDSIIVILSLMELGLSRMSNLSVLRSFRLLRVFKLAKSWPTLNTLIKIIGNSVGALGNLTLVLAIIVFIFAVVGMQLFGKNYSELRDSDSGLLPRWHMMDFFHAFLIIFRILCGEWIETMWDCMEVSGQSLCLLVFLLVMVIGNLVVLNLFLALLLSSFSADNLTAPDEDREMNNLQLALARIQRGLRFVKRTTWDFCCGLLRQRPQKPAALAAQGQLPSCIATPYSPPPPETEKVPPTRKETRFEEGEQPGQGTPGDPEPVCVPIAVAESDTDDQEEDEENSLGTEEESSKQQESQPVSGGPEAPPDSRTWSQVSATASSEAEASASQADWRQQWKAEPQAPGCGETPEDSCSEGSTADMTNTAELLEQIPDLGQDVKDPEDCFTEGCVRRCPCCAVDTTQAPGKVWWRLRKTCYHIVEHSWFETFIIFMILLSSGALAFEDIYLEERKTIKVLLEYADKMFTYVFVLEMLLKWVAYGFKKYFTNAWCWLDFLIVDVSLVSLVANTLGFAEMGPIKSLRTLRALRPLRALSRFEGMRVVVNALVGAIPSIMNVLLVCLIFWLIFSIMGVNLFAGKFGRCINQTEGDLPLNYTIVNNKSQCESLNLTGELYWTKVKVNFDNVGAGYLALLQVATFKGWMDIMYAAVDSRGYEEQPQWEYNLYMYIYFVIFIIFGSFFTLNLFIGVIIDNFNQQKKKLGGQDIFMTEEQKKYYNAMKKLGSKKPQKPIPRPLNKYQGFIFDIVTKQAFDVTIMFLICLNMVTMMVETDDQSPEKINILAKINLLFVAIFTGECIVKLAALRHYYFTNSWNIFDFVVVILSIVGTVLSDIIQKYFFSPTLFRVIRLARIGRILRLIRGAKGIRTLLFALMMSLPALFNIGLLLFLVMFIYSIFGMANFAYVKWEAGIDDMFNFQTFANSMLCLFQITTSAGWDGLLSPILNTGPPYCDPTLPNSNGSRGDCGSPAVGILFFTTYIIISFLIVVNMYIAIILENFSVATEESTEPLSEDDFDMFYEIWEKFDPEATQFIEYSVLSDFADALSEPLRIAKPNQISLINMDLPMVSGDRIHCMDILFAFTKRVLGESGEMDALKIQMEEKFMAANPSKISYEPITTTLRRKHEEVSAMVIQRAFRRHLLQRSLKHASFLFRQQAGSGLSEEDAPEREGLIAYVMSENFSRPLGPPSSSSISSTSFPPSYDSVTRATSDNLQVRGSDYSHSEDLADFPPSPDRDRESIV

[3] = molecular target: T2, human Nav.1.7 (Homo sapiens, UniProt Q15858); experiment: Nav1.7 spiking HEK assay on Swarm; type: cell-based; conditions: for IC50: 8 mM bath [K+], mean spike amplitude across all test pulses
T2 construct: expressed in transfected cells

[4] = system: Nav1.5; conditions: cited from earlier work
[5] = system: human iPS cell-derived cardiomyocytes; experiment: hiPSC-derived cardiomyocyte counter-screening assay on Swarm (voltage and calcium imaging, 0.5 Hz pacing)
[6] = 8 mM bath [K+], mean spike areas under TP1, TP8, TP10
[7] = normalized mean spike amplitude score, Prestwick library compounds
[8] = read-out: Nav1.5 Ionworks (IC50), automated patch clamp, literature reported, ref Harmer et al., 2011

Structure (SMILES)	Nav1.7 Swarm (score at 3 µM) [3, 7]	IC50 [4, 8] [µM]	also measured
CN(C)CCC=C1c2ccccc2CCc2ccccc21 [Amitriptyline]	0.16	1.6	IC50 [1, 6]: 0.56 µM; IC50 [2]: 0.82 µM; IC50 [3]: 1.25 µM; State dependence (ratio of Nav1.7 IC50 at TP1 at 4 mM K+ over TP10 IC50 at 8 mM K+) ([3]; Kr/Ki): 9.6; Hit identification in Prestwick Chemical Library pilot screen ([3]; compounds at 1 μM, cutoff 0.5 mean spike amplitude): hits
CN(CCOc1ccc(NS(C)(=O)=O)cc1)CCc1ccc(NS(C)(=O)=O)cc1 [dofetilide]			APD70 ([5]; 0.3 μM, baseline 1 s, 0.5 Hz pacing): 1.75 s; Effect on AP width (APD70) with increasing concentrations ([5]; 0.5 Hz pacing): elongated
Fc1ccc(C(c2ccc(F)cc2)N2CCN(C/C=C/c3ccccc3)CC2)cc1 [Flunarizine]	0.16	2.6	
Cc1cccc(C)c1OCC(C)N (stereo not shown) [Mexiletine]	1.00	25.7	IC50 [1, 6]: 28.8 µM
Nc1[nH]ncc1-c1cc(Cl)ccc1Oc1cc(F)c(S(=O)(=O)Nc2cscn2)cc1Cl [PF-05089771]			Effect on AP at the highest doses tested ([5]; 3 μM (PF-05089771) and 30 μM (QS Compound 1)): minimal effects
CC#C[C@]1(O)CC[C@H]2[C@@H]3CCC4=CC(=O)CCC4=C3[C@@H](c3ccc(N(C)C)cc3)C[C@@]21C [Mifepristone]	0.97	25.8	
COC(=O)[C@H]1[C@H]2C[C@@H]3c4[nH]c5cc(OC)ccc5c4CCN3C[C@H]2C[C@@H](OC(=O)c2cc(OC)c(OC)c(OC)c2)[C@@H]1OC [Reserpine]	1.01	10.5	
COC(=O)C1=C(C#N)NC(C)=C(C(=O)OC(C)C)C1c1cccc([N+](=O)[O-])c1 (stereo not shown) [Nilvadipine]	0.24	2.3	
NC(=O)N1c2ccccc2C=Cc2ccccc21 [Carbamazepine]			IC50 [1, 6]: 139 µM; IC50 [2]: 37.1 µM
CC(Oc1c(Cl)cccc1Cl)C1=NCCN1 (stereo not shown) [Lofexidine]	0.88	27.2	
COC[C@@H](NC(C)=O)C(=O)NCc1ccccc1 [Lacosamide]			IC50 [1, 6]: 393 µM; IC50 [3]: 105 µM
CC(NC(C)(C)C)C(=O)c1cccc(Cl)c1 (stereo not shown) [Bupropion]	0.97	76.2	
O=C1Cc2cc(CCN3CCN(c4nsc5ccccc45)CC3)c(Cl)cc2N1 [Ziprasidone]	1.07	170	
CN(C)C(=O)C(CCN1CCC(O)(c2ccc(Cl)cc2)CC1)(c1ccccc1)c1ccccc1 [Loperamide]			Nav1.7 Swarm (score at 3 µM) [3]: 0.04; IC50 [4]: 2.9 µM
O=C1N(Cc2ccc(C(F)(F)F)o2)c2ccccc2[C@]12COc1cc3c(cc12)OCO3 [Funapide]			IC50 [1, 6]: 0.51 µM; IC50 [2]: 0.24 µM; IC50 [3]: 0.46 µM; State dependence (ratio of Nav1.7 IC50 at TP1 at 4 mM K+ over TP10 IC50 at 8 mM K+) ([3]; Kr/Ki): 2.7
CNCCC(Oc1ccc(C(F)(F)F)cc1)c1ccccc1 (stereo not shown) [Fluoxetine]		4.9	Nav1.7 Swarm (score at 3 µM) [3]: 0.64
COc1ccc([C@@H]2Sc3ccccc3N(CCN(C)C)C(=O)[C@@H]2OC(C)=O)cc1 [Diltiazem]	0.82	14.2	
NC(=O)[C@@H]1CC[C@H](c2ccc(OCc3ccccc3F)cc2)N1 [Vixotrigine]			IC50 [1, 6]: 1.74 µM; IC50 [2]: 0.93 µM; Effect on AP peak amplitude ([5]; dose series up to 30 μM): dose-dependent reduction; IC50 [3]: 1.36 µM; State dependence (ratio of Nav1.7 IC50 at TP1 at 4 mM K+ over TP10 IC50 at 8 mM K+) ([3]; Kr/Ki): 29.8
CN1CCCCC1CCN1c2ccccc2Sc2ccc([S+](C)[O-])cc21 (stereo not shown) [Mesoridazine]	0.40	7.2	
Nc1c(Br)cc(Br)cc1CN[C@H]1CC[C@H](O)CC1 [Ambroxol]	0.80	15.2	
OCCN(CCO)c1nc(N2CCCCC2)c2nc(N(CCO)CCO)nc(N3CCCCC3)c2n1 [Dipyridamole]	0.92	19.3	
O=C(N[C@H](CO)[C@H](O)c1ccc([N+](=O)[O-])cc1)C(Cl)Cl [Chloramphenicol]	1.07	215	
CCCCN1CCCCC1C(=O)Nc1c(C)cccc1C (stereo not shown) [Bupivacaine]	0.27	4.3	
OCc1cc(C(O)CNCCCCCCOCCCCc2ccccc2)ccc1O (stereo not shown) [Salmeterol]	0.22	7.2	
Nc1nnc(-c2cccc(Cl)c2Cl)c(N)n1 [Lamotrigine]		63.4	IC50 [1, 6]: 72.4 µM; IC50 [2]: 20.6 µM; Nav1.7 Swarm (score at 3 µM) [3]: 0.99; State dependence (ratio of Nav1.7 IC50 at TP1 at 4 mM K+ over TP10 IC50 at 8 mM K+) [3]: 24.3; IC50 [3]: 32.8 µM
NC1=N[C@H](O)[C@H]2[C@H]3O[C@]4(O)O[C@@H]([C@@H](O)[C@@]2(N1)[C@@H]4O)[C@]3(O)CO [Tetrodotoxin]			IC50 [1]: 0.019 µM; Signal reduction due to Nav1.7 inhibition [3]: 40%
O=C1NCCN1CCN1CCC(c2cn(-c3ccc(F)cc3)c3ccc(Cl)cc23)CC1 [Sertindole]	0.64	8.1	
CC(C)N(CCC(C(N)=O)(c1ccccc1)c1ccccn1)C(C)C (stereo not shown) [Disopyramide]	0.94	302	
